Reference: patent US9296741B2, “Bromodomain inhibitors” (priority 2012, dated 2016)

Experiments:
[1] = target: human BRD4 first bromodomain (BDI_K57-E168) (Homo sapiens (Human), UniProt O60885); assay: TR-FRET bromodomain binding assay, BRD4 first bromodomain
[2] = target: human BRD4 second bromodomain (BDII_E352-M457) (Homo sapiens (Human), UniProt O60885); assay: TR-FRET bromodomain binding assay, BRD4 second bromodomain
[3] = Human liver microsome stability assay; type: in vitro ADME; settings: both sexes, human, microsomes, pH 7.4
[4] = test system: breast cancer cell line MX-1; assay: MX-1 cell line proliferation assay; type: cell-based, human; settings: Homo sapiens, MX1, 72 h; MX-1 cells, 3-day proliferation, Cell Titer Glo; read-out: Cellular proliferation: EC50
[5] = Rat liver microsome stability assay; type: in vitro ADME; settings: rat liver microsomes (male Sprague-Dawley), 0.5 μM test compound, pH 7.4, 37° C.; for half-life at 0.5 μM: 0.25 mg/mL microsomal protein, read-out: Stability in rat liver microsomes (t1/2 in minutes); for Stability in rat liver microsomes (t1/2 in minutes): […] microsomal protein
[6] = Mouse liver microsome stability assay; type: in vitro ADME; settings: male, CD1, mouse, microsomes, pH 7.4

Row | SMILES | Ki [1] | Ki [2] | half-life at 0.5 μM [3] | EC50 [4] | half-life at 0.5 μM [5] | half-life at 0.5 μM [6] | Stability in rat liver microsomes (t1/2 in minutes) [5]
1 | Cc1ccc(S(=O)(=O)n2ccc3c(-c4cc(NS(C)(=O)=O)ccc4Oc4ccccc4)cn(C)c(=O)c32)cc1 [Example 7, N-(3-{6-methyl-1-[(4-methylphenyl)sulfonyl]-7-oxo-6,7-dihydro-1H-pyrrolo[2,3-c]pyridin-4-yl}-4-phenoxyphenyl)methanesulfonamide] | 119 nM | 77.3 nM | 12 min | > 3000 nM | 2 min | 4 min | 
2 | Cn1cc(-c2cc(C(=O)NC3CCCC3)ccc2Oc2ccccc2)c2cc[nH]c2c1=O [Example 15, N-cyclopentyl-3-(6-methyl-7-oxo-6,7-dihydro-1H-pyrrolo[2,3-c]pyridin-4-yl)-4-phenoxybenzamide] | 4.2 nM | 7.5 nM | 10 min | 140 nM | 4 min | 7 min | 
3 | Cn1cc(-c2cc(C(=O)NCC(F)F)ccc2Oc2ccccc2)c2cc[nH]c2c1=O [Example 16, N-(2,2-difluoroethyl)-3-(6-methyl-7-oxo-6,7-dihydro-1H-pyrrolo[2,3-c]pyridin-4-yl)-4-phenoxybenzamide] | 4.3 nM | 5.3 nM | > 120 min | 94.6 nM | 4 min | 22 min | 
4 | Cn1cc(-c2cc(C(N)=O)ccc2Oc2ccccc2)c2cc[nH]c2c1=O [Example 19, 3-(6-methyl-7-oxo-6,7-dihydro-1H-pyrrolo[2,3-c]pyridin-4-yl)-4-phenoxybenzamide] | 7.4 nM | 4.2 nM | 92 min | 123 nM | 13 min | 33 min | 
5 | Cn1cc(-c2cc(CO)ccc2Oc2ccccc2)c2cc[nH]c2c1=O [Example 20, 4-[5-(hydroxymethyl)-2-phenoxyphenyl]-6-methyl-1,6-dihydro-7H-pyrrolo[2,3-c]pyridin-7-one] | 10.9 nM | 0.68 nM | 18 min | 190 nM |  | 7 min | 1 min
6 | CCS(=O)(=O)Nc1ccc(Oc2ccccc2)c(-c2cn(C)c(=O)c3[nH]ccc23)c1 [Example 21, N-[3-(6-methyl-7-oxo-6,7-dihydro-1H-pyrrolo[2,3-c]pyridin-4-yl)-4-phenoxyphenyl]ethanesulfonamide] | 0.39 nM | 0.25 nM | > 120 min | 13.9 nM | 3 min | 22 min | 
7 | CN(C)S(=O)(=O)Nc1ccc(Oc2ccccc2)c(-c2cn(C)c(=O)c3[nH]ccc23)c1 [Example 22, N,N-dimethyl-N′-[3-(6-methyl-7-oxo-6,7-dihydro-1H-pyrrolo[2,3-c]pyridin-4-yl)-4-phenoxyphenyl]sulfuric diamide] | 2.2 nM | 1 nM | 32 min | 65.2 nM | 3 min | 10.7 min | 
8 | Cn1cc(-c2cc(NS(C)(=O)=O)cnc2Oc2ccccc2)c2cc[nH]c2c1=O [Example 23, N-[5-(6-methyl-7-oxo-6,7-dihydro-1H-pyrrolo[2,3-c]pyridin-4-yl)-6-phenoxypyridin-3-yl]methanesulfonamide] | 1.2 nM | 0.75 nM | 64 min | 45.9 nM | 11 min | > 120 min | 
9 | Cn1cc(-c2cc(NS(C)(=O)=O)ccc2OC2CCOC2)c2cc[nH]c2c1=O (stereo not drawn) [Example 31, N-[3-(6-methyl-7-oxo-6,7-dihydro-1H-pyrrolo[2,3-c]pyridin-4-yl)-4-(tetrahydrofuran-3-yloxy)phenyl]methanesulfonamide] | 1.8 nM | 13.4 nM | 56 min | 39.8 nM | > 120 min | 19 min | 
10 | Cn1cc(-c2cc(NS(C)(=O)=O)ccc2Oc2ccc(C#N)cc2)c2cc[nH]c2c1=O [Example 33, N-[4-(4-cyanophenoxy)-3-(6-methyl-7-oxo-6,7-dihydro-1H-pyrrolo[2,3-c]pyridin-4-yl)phenyl]methanesulfonamide] | 2.6 nM | 4.8 nM | > 120 min | 41.7 nM | > 120 min | 46 min | 
11 | Cn1cc(-c2cc(CN3CCCS3(=O)=O)ccc2Oc2ccccc2)c2cc[nH]c2c1=O [Example 41, 4-{5-[(1,1-dioxido-1,2-thiazolidin-2-yl)methyl]-2-phenoxyphenyl}-6-methyl-1,6-dihydro-7H-pyrrolo[2,3-c]pyridin-7-one] | 2.8 nM | 0.51 nM | 13.6 min | 29.8 nM |  | 10 min | 1 min
12 | Cn1cc(-c2cc(CNC(=O)CCC(=O)O)ccc2Oc2ccccc2)c2cc[nH]c2c1=O [Example 42, 4-{[3-(6-methyl-7-oxo-6,7-dihydro-1H-pyrrolo[2,3-c]pyridin-4-yl)-4-phenoxybenzyl]amino}-4-oxobutanoic acid] | 54.6 nM | 93.4 nM | > 120 min | > 3000 nM | > 120 min | > 120 min | 
13 | Cn1cc(-c2cc(N3CCCS3(=O)=O)ccc2Oc2ccc(F)cc2F)c2cc[nH]c2c1=O [Example 43, 4-[2-(2,4-difluorophenoxy)-5-(1,1-dioxido-1,2-thiazolidin-2-yl)phenyl]-6-methyl-1,6-dihydro-7H-pyrrolo[2,3-c]pyridin-7-one] | 1.7 nM | 1.2 nM | 34.9 min | 16.9 nM | 2 min | 5 min | 
14 | Cn1cc(-c2cc(CCO)ccc2OCc2ccccc2)c2cc[nH]c2c1=O [Example 44, 4-[2-(benzyloxy)-5-(2-hydroxyethyl)phenyl]-6-methyl-1,6-dihydro-7H-pyrrolo[2,3-c]pyridin-7-one] | 286 nM | 236 nM | 33.7 min | 828 nM | 6 min | 27 min | 
15 | CN(C)C(=O)Cc1ccc(OCc2ccccc2)c(-c2cn(C)c(=O)c3[nH]ccc23)c1 [Example 47, 2-[4-(benzyloxy)-3-(6-methyl-7-oxo-6,7-dihydro-1H-pyrrolo[2,3-c]pyridin-4-yl)phenyl]-N,N-dimethylacetamide] | 235 nM | 205 nM | 8 min | 1100 nM | 3 min | 5 min | 

Continued by falling Ki [1], values first:

Row | Ki [1] | Ki [2] | half-life at 0.5 μM [3] | EC50 [4] | half-life at 0.5 μM [5] | half-life at 0.5 μM [6] | Stability in rat liver microsomes (t1/2 in minutes) [5] | SMILES
16 | 15.4 nM | 8.6 nM | 78 min | > 3000 nM | > 120 min | > 120 min |  | Cn1cc(-c2cc(C(=O)O)ccc2Oc2ccccc2)c2cc[nH]c2c1=O [Example 10, 3-(6-methyl-7-oxo-6,7-dihydro-1H-pyrrolo[2,3-c]pyridin-4-yl)-4-phenoxybenzoic acid]
17 | 11.3 nM | 10.8 nM | 88.9 min | 59.3 nM | 54 min | 3 min |  | CC(=O)Nc1ccc(Oc2ccc(F)cc2F)c(-c2cn(C)c(=O)c3[nH]ccc23)c1 [Example 37, N-[4-(2,4-difluorophenoxy)-3-(6-methyl-7-oxo-6,7-dihydro-1H-pyrrolo[2,3-c]pyridin-4-yl)phenyl]acetamide]
18 | 10.2 nM | 10.3 nM | 31 min | 209 nM | 11 min | 15 min |  | Cn1cc(-c2cc(C(=O)NC3CCS(=O)(=O)C3)ccc2Oc2ccccc2)c2cc[nH]c2c1=O (stereo not drawn) [Example 18, N-(1,1-dioxidotetrahydrothiophen-3-yl)-3-(6-methyl-7-oxo-6,7-dihydro-1H-pyrrolo[2,3-c]pyridin-4-yl)-4-phenoxybenzamide]
19 | 5.5 nM | 12.3 nM | 37 min | 170 nM | 6 min | 8 min |  | Cn1cc(-c2cc(C(=O)NCC3CCCO3)ccc2Oc2ccccc2)c2cc[nH]c2c1=O (stereo not drawn) [Example 14, 3-(6-methyl-7-oxo-6,7-dihydro-1H-pyrrolo[2,3-c]pyridin-4-yl)-4-phenoxy-N-(tetrahydrofuran-2-ylmethyl)benzamide]
20 | 3.7 nM | 3.4 nM | 66 min | 128 nM | 2 min | 22 min |  | CCNC(=O)c1ccc(Oc2ccccc2)c(-c2cn(C)c(=O)c3[nH]ccc23)c1 [Example 13, N-ethyl-3-(6-methyl-7-oxo-6,7-dihydro-1H-pyrrolo[2,3-c]pyridin-4-yl)-4-phenoxybenzamide]
21 | 2.6 nM | 3.9 nM | 19 min | 24.4 nM |  | 9 min | 1 min | CN(c1ccc(Oc2ccccc2)c(-c2cn(C)c(=O)c3[nH]ccc23)c1)S(C)(=O)=O [Example 8, N-methyl-N-[3-(6-methyl-7-oxo-6,7-dihydro-1H-pyrrolo[2,3-c]pyridin-4-yl)-4-phenoxyphenyl]methanesulfonamide]
22 | 1.1 nM | 6.7 nM | > 120 min | 71.8 nM | 26 min | > 120 min |  | Cn1cc(-c2cc(NS(C)(=O)=O)ccc2OC2CCOCC2)c2cc[nH]c2c1=O [Example 29, N-[3-(6-methyl-7-oxo-6,7-dihydro-1H-pyrrolo[2,3-c]pyridin-4-yl)-4-(tetrahydro-2H-pyran-4-yloxy)phenyl]methanesulfonamide]
